Data as given in PubChem BioAssay (NCI).
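GI50: concentration for 50% inhibition of growth. Definition used: TGI = concentration required for complete inhibition of growth.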

Key:
Experiment in all cases: NCI tumour cell line growth inhibition, 384-well format
OVCAR-3 ovarian = test system: OVCAR-3 ovarian
SF-295 CNS = test system: SF-295 CNS
SK-MEL-28 melanoma = test system: SK-MEL-28 melanoma
OVCAR-5 ovarian = test system: OVCAR-5 ovarian
IGROV1 ovarian = test system: IGROV1 ovarian
NCI-H522 lung = test system: NCI-H522 lung
HL-60(TB) leukemia = test system: HL-60(TB) leukemia
SNB-75 CNS = test system: SNB-75 CNS
786-0 renal = test system: 786-0 renal
A498 renal = test system: A498 renal
CCRF-CEM leukemia = test system: CCRF-CEM leukemia
MALME-3M melanoma = test system: MALME-3M melanoma
HCC-2998 colon = test system: HCC-2998 colon
RPMI-8226 leukemia = test system: RPMI-8226 leukemia
SNB-19 CNS = test system: SNB-19 CNS
UACC-257 melanoma = test system: UACC-257 melanoma
HCT-15 colon = test system: HCT-15 colon
ACHN renal = test system: ACHN renal
TK-10 renal = test system: TK-10 renal
NCI-H322M lung = test system: NCI-H322M lung
NCI-H23 lung = test system: NCI-H23 lung
PC-3 prostate = test system: PC-3 prostate
HS 578T breast = test system: HS 578T breast
SW-620 colon = test system: SW-620 colon
MDA-MB-435 melanoma = test system: MDA-MB-435 melanoma
HT29 colon = test system: HT29 colon
SF-268 CNS = test system: SF-268 CNS
NCI-H226 lung = test system: NCI-H226 lung
DU-145 prostate = test system: DU-145 prostate
NCI-H460 NSCLC = test system: NCI-H460 NSCLC
MDA-MB-231 breast = test system: MDA-MB-231 breast
MDA-MB-468 breast = test system: MDA-MB-468 breast
COLO 205 colon = test system: COLO 205 colon
BT-549 breast = test system: BT-549 breast
NCI/ADR-RES ovarian = test system: NCI/ADR-RES ovarian
OVCAR-8 ovarian = test system: OVCAR-8 ovarian
SF-539 CNS = test system: SF-539 CNS
SK-OV-3 ovarian = test system: SK-OV-3 ovarian
SK-MEL-5 melanoma = test system: SK-MEL-5 melanoma
RXF 393 renal = test system: RXF 393 renal
SR leukemia = test system: SR leukemia
OVCAR-4 ovarian = test system: OVCAR-4 ovarian
U251 glioblastoma = test system: U251 glioblastoma
M14 melanoma = test system: M14 melanoma
HOP-92 NSCLC = test system: HOP-92 NSCLC
MOLT-4 leukemia = test system: MOLT-4 leukemia
UACC-62 melanoma = test system: UACC-62 melanoma
MCF7 breast = test system: MCF7 breast
CAKI-1 renal = test system: CAKI-1 renal
T-47D breast = test system: T-47D breast
KM12 colon = test system: KM12 colon
HOP-62 NSCLC = test system: HOP-62 NSCLC
SN12C renal = test system: SN12C renal
A549 NSCLC = test system: A549 NSCLC
SK-MEL-2 melanoma = test system: SK-MEL-2 melanoma
EKVX NSCLC = test system: EKVX NSCLC
K-562 leukemia = test system: K-562 leukemia
HCT-116 colon = test system: HCT-116 colon
LOX IMVI melanoma = test system: LOX IMVI melanoma

## OCc1ccc(-c2nn(Cc3ccccc3)c3ccccc23)o1
OVCAR-3 ovarian
  GI50: 9.85 µM
  TGI: 21.9 µM
SF-295 CNS
  GI50: 46.6 µM
  TGI: > 100 µM
SK-MEL-28 melanoma
  GI50: 24 µM
  TGI: 41.4 µM
OVCAR-5 ovarian
  GI50: 0.369 µM
  TGI: 5.99 µM
IGROV1 ovarian
  GI50: 0.424 µM
  TGI: 2.31 µM
NCI-H522 lung
  GI50: 14.6 µM
  TGI: 28.2 µM
HL-60(TB) leukemia
  GI50: 16.6 µM
  TGI: 30.4 µM
SNB-75 CNS
  GI50: 17.2 µM
  TGI: 35.1 µM
786-0 renal
  GI50: 34.5 µM
  TGI: > 100 µM
A498 renal
  GI50: 0.024 µM
  TGI: 0.0655 µM
CCRF-CEM leukemia
  GI50: 18 µM
  TGI: 32.3 µM
MALME-3M melanoma
  GI50: 20.4 µM
  TGI: 36.4 µM
HCC-2998 colon
  GI50: 20.1 µM
  TGI: 34.9 µM
RPMI-8226 leukemia
  GI50: 9.64 µM
  TGI: 21.3 µM
SNB-19 CNS
  GI50: 46.2 µM
  TGI: > 100 µM
UACC-257 melanoma
  GI50: 1.49 µM
  TGI: 3.15 µM
HCT-15 colon
  GI50: 23 µM
  TGI: 49.6 µM
ACHN renal
  GI50: 35 µM
  TGI: 81.9 µM
TK-10 renal
  GI50: 0.374 µM
  TGI: 2.29 µM
NCI-H322M lung
  GI50: 33 µM
  TGI: > 100 µM
NCI-H23 lung
  GI50: 25.3 µM
  TGI: 53.1 µM
PC-3 prostate
  GI50: 19.7 µM
  TGI: 37.3 µM
HS 578T breast
  GI50: 20.3 µM
  TGI: 42.8 µM
SW-620 colon
  GI50: 20.2 µM
  TGI: 41.5 µM
MDA-MB-435 melanoma
  GI50: 20.8 µM
  TGI: 38 µM
HT29 colon
  GI50: 17.9 µM
  TGI: 32.3 µM
SF-268 CNS
  GI50: 29.8 µM
  TGI: 69.7 µM
NCI-H226 lung
  GI50: 0.166 µM
  TGI: 0.314 µM
DU-145 prostate
  GI50: 17.4 µM
  TGI: 32.8 µM
NCI-H460 NSCLC
  GI50: 16.4 µM
  TGI: 30.3 µM
MDA-MB-231 breast
  GI50: 20.3 µM
  TGI: 45.8 µM
MDA-MB-468 breast
  GI50: 0.181 µM
  TGI: 0.328 µM
COLO 205 colon
  GI50: 18.6 µM
  TGI: 36.5 µM
BT-549 breast
  GI50: 17.4 µM
  TGI: 31.5 µM
NCI/ADR-RES ovarian
  GI50: 21 µM
  TGI: 42.7 µM
OVCAR-8 ovarian
  GI50: 23.5 µM
  TGI: 47 µM
SF-539 CNS
  GI50: 18.5 µM
  TGI: 34.6 µM
SK-OV-3 ovarian
  GI50: 22.5 µM
  TGI: 41.4 µM
SK-MEL-5 melanoma
  GI50: 18.3 µM
  TGI: 32.5 µM
RXF 393 renal
  GI50: 11.4 µM
  TGI: 27.5 µM
SR leukemia
  GI50: 3.02 µM
  TGI: 7.56 µM
OVCAR-4 ovarian
  GI50: 23.5 µM
  TGI: 49 µM
U251 glioblastoma
  GI50: 13.3 µM
  TGI: 28.1 µM
M14 melanoma
  GI50: 21.7 µM
  TGI: 39.7 µM
HOP-92 NSCLC
  GI50: 16 µM
  TGI: 30.8 µM
MOLT-4 leukemia
  GI50: 12.1 µM
  TGI: 24.7 µM
UACC-62 melanoma
  GI50: 1.97 µM
  TGI: 31.4 µM
MCF7 breast
  GI50: 2.34 µM
  TGI: > 100 µM
CAKI-1 renal
  GI50: 0.427 µM
  TGI: 3.49 µM
T-47D breast
  GI50: 9.48 µM
  TGI: 34.1 µM
KM12 colon
  GI50: 18.6 µM
  TGI: 34 µM
HOP-62 NSCLC
  GI50: 5.79 µM
  TGI: 26.3 µM
SN12C renal
  GI50: 50.1 µM
  TGI: > 100 µM
A549 NSCLC
  GI50: 19.8 µM
  TGI: 44.9 µM
SK-MEL-2 melanoma
  GI50: 36.5 µM
  TGI: 54.5 µM
EKVX NSCLC
  GI50: 27.3 µM
  TGI: 68.1 µM

## N#Cc1ccc(OC(=O)Nc2cc(Cl)cc(Cl)c2)cc1
OVCAR-3 ovarian
  GI50: 2.44 µM
  TGI: 5.16 µM
SF-295 CNS
  GI50: 3.07 µM
  TGI: 8.78 µM
SK-MEL-28 melanoma
  GI50: 13.1 µM
  TGI: 30.6 µM
IGROV1 ovarian
  GI50: 4.43 µM
  TGI: 15.3 µM
NCI-H522 lung
  GI50: 3.23 µM
  TGI: 7.63 µM
HL-60(TB) leukemia
  GI50: 1.77 µM
  TGI: 3.16 µM
SNB-75 CNS
  GI50: 3.32 µM
  TGI: 9.94 µM
786-0 renal
  GI50: 7.03 µM
  TGI: 20.1 µM
A498 renal
  GI50: 3.47 µM
  TGI: 9.21 µM
CCRF-CEM leukemia
  GI50: 2.19 µM
  TGI: 5.31 µM
MALME-3M melanoma
  GI50: 5.9 µM
  TGI: 16.4 µM
HCC-2998 colon
  GI50: 13.2 µM
  TGI: 30.8 µM
RPMI-8226 leukemia
  GI50: 2.04 µM
  TGI: 3.48 µM
SNB-19 CNS
  GI50: 4.74 µM
  TGI: 19.1 µM
UACC-257 melanoma
  GI50: 6.12 µM
  TGI: 15.9 µM
HCT-15 colon
  GI50: 4.14 µM
  TGI: 12.1 µM
ACHN renal
  GI50: 3.51 µM
  TGI: 10 µM
TK-10 renal
  GI50: 4.01 µM
  TGI: 13.1 µM
NCI-H322M lung
  GI50: 11.6 µM
  TGI: 29.4 µM
NCI-H23 lung
  GI50: 2.23 µM
  TGI: 4.16 µM
PC-3 prostate
  GI50: 3.27 µM
  TGI: 7.27 µM
HS 578T breast
  GI50: 7.57 µM
  TGI: 20.5 µM
SW-620 colon
  GI50: 4.54 µM
  TGI: 14.6 µM
MDA-MB-435 melanoma
  GI50: 8.94 µM
  TGI: 23.6 µM
HT29 colon
  GI50: 4.43 µM
  TGI: 17.3 µM
SF-268 CNS
  GI50: 5.61 µM
  TGI: 21.6 µM
NCI-H226 lung
  GI50: 3.27 µM
  TGI: 8.97 µM
DU-145 prostate
  GI50: 4.29 µM
  TGI: 55.5 µM
NCI-H460 NSCLC
  GI50: 2.84 µM
  TGI: 6.62 µM
MDA-MB-468 breast
  GI50: 9.04 µM
  TGI: 20.9 µM
COLO 205 colon
  GI50: 6.65 µM
  TGI: 23.9 µM
BT-549 breast
  GI50: 13.4 µM
  TGI: 30.8 µM
NCI/ADR-RES ovarian
  GI50: 3.79 µM
  TGI: 9.65 µM
OVCAR-8 ovarian
  GI50: 4.1 µM
  TGI: 12.6 µM
SF-539 CNS
  GI50: 4.28 µM
  TGI: 13.4 µM
SK-OV-3 ovarian
  GI50: 6 µM
  TGI: 19.9 µM
SK-MEL-5 melanoma
  GI50: 4.36 µM
  TGI: 13.2 µM
RXF 393 renal
  GI50: 6.26 µM
  TGI: 17.7 µM
OVCAR-4 ovarian
  GI50: 8.27 µM
  TGI: 62.2 µM
U251 glioblastoma
  GI50: 3.43 µM
  TGI: 7.96 µM
M14 melanoma
  GI50: 5.38 µM
  TGI: 15 µM
HOP-92 NSCLC
  GI50: 3.23 µM
  TGI: 7.12 µM
K-562 leukemia
  GI50: 7.71 µM
  TGI: 93.1 µM
MOLT-4 leukemia
  GI50: 2 µM
  TGI: 3.7 µM
UACC-62 melanoma
  GI50: 7.22 µM
  TGI: 19.3 µM
HCT-116 colon
  GI50: 3.12 µM
  TGI: 7.62 µM
MCF7 breast
  GI50: 3.75 µM
  TGI: 16 µM
CAKI-1 renal
  GI50: 3.69 µM
  TGI: 10.2 µM
KM12 colon
  GI50: 3.74 µM
  TGI: 11 µM
HOP-62 NSCLC
  GI50: 3.03 µM
  TGI: 6.05 µM
LOX IMVI melanoma
  GI50: 3.81 µM
  TGI: 12.7 µM
SN12C renal
  GI50: 4 µM
  TGI: 13.2 µM
A549 NSCLC
  GI50: 3.78 µM
  TGI: 12.7 µM
SK-MEL-2 melanoma
  GI50: 2.84 µM
  TGI: 5.82 µM
EKVX NSCLC
  GI50: 3.92 µM
  TGI: 12.6 µM
